Data reported in ChEMBL document CHEMBL1158317, “Porrigenins A and B, novel cytotoxic and antiproliferative sapogenins isolated from Allium porrum” (J Nat Prod, 1997).
In brackets after ≈: the same amount, converted by molar mass.

Experiments:
Format in all cases: functional, cell-based
[1] = test system: IGR-1; assay: Cytotoxicity against human IGR-1 cells after 24 hrs by MTT assay; conditions: IGR-1, 24 h
[2] = test system: IGR-1; assay: Antiproliferative activity against human IGR-1 cells after 48 hrs by MTT assay; conditions: IGR-1, 48 h
[3] = test system: IGR-1; assay: Antiproliferative activity against human IGR-1 cells after 72 hrs by MTT assay; conditions: IGR-1, 72 h
[4] = test system: J774; assay: Cytotoxicity against mouse J774 cells after 24 hrs by MTT assay; conditions: J774, 24 h
[5] = test system: J774; assay: Antiproliferative activity against mouse J774 cells after 48 hrs by MTT assay; conditions: J774, 48 h
[6] = test system: J774; assay: Antiproliferative activity against mouse J774 cells after 72 hrs by MTT assay; conditions: J774, 72 h
[7] = test system: WEHI-164; assay: Cytotoxicity against mouse WEHI164 cells after 24 hrs by MTT assay; conditions: WEHI-164, 24 h
[8] = test system: WEHI-164; assay: Antiproliferative activity against mouse WEHI164 cells after 48 hrs by MTT assay; conditions: WEHI-164, 48 h
[9] = test system: WEHI-164; assay: Antiproliferative activity against mouse WEHI164 cells after 72 hrs by MTT assay; conditions: WEHI-164, 72 h
[10] = test system: P388; assay: Cytotoxicity against mouse P388 cells after 24 hrs by MTT assay; conditions: P388, 24 h
[11] = test system: P388; assay: Antiproliferative activity against mouse P388 cells after 48 hrs by MTT assay; conditions: P388, 48 h
[12] = test system: P388; assay: Antiproliferative activity against mouse P388 cells after 72 hrs by MTT assay; conditions: P388, 72 h

| Compound | IC50 [1] [µg/mL] | IC50 [2] [µg/mL] | IC50 [3] [µg/mL] | IC50 [4] [µg/mL] | IC50 [5] [µg/mL] | IC50 [6] [µg/mL] | IC50 [7] [µg/mL] | IC50 [8] [µg/mL] | IC50 [9] [µg/mL] | IC50 [10] [µg/mL] | IC50 [11] [µg/mL] | IC50 [12] [µg/mL] |
| --- | --- | --- | --- | --- | --- | --- | --- | --- | --- | --- | --- | --- |
| C[C@@H]1CC[C@@]2(OC1)O[C@H]1C[C@H]3[C@@H]4C[C@@H](O)[C@H]5C[C@@H](O)C(=O)C[C@]5(C)[C@H]4CC[C@]3(C)[C@H]1[C@@H]2C [PORRIGENIN B] | 823 (≈ 1840 µM) | 330 (≈ 739 µM) | 45 (≈ 101 µM) | 552 (≈ 1240 µM) | 111 (≈ 249 µM) | 51 (≈ 114 µM) | 655 (≈ 1470 µM) | 344 (≈ 770 µM) | 92 (≈ 206 µM) | 837 (≈ 1870 µM) | 185 (≈ 414 µM) | 74 (≈ 166 µM) |
| C[C@@H]1CC[C@@]2(OC1)O[C@H]1C[C@H]3[C@@H]4C[C@@H](O)[C@H]5C[C@@H](O)[C@@H](O)C[C@]5(C)[C@H]4CC[C@]3(C)[C@H]1[C@@H]2C [PORRIGENIN A] | 942 (≈ 2100 µM) | 471 (≈ 1050 µM) | 184 (≈ 410 µM) | 754 (≈ 1680 µM) | 515 (≈ 1150 µM) | 270 (≈ 602 µM) |  | 277 (≈ 617 µM) | 110 (≈ 245 µM) | 617 (≈ 1380 µM) | 270 (≈ 602 µM) | 115 (≈ 256 µM) |
| Sc1ncnc2nc[nH]c12 [MERCAPTOPURINE ANHYDROUS] | 51.7 (≈ 340 µM) | 12.3 (≈ 80.8 µM) | 1.1 (≈ 7.23 µM) | 61 (≈ 401 µM) | 3.6 (≈ 23.7 µM) | 0.5 (≈ 3.29 µM) | 83 (≈ 545 µM) | 42 (≈ 276 µM) | 2.7 (≈ 17.7 µM) | 37 (≈ 243 µM) | 2.1 (≈ 13.8 µM) | 0.3 (≈ 1.97 µM) |
| C[C@@H]1CC[C@@]2(OC1)O[C@H]1C[C@H]3[C@@H]4C[C@@H](O)[C@H]5C[C@@H](O)[C@H](O)C[C@]5(C)[C@H]4CC[C@]3(C)[C@H]1[C@@H]2C [AGIGENIN] |  | 627 (≈ 1400 µM) | 264 (≈ 588 µM) | 896 (≈ 2000 µM) | 655 (≈ 1460 µM) | 321 (≈ 715 µM) | 836 (≈ 1860 µM) | 548 (≈ 1220 µM) | 210 (≈ 468 µM) | 609 (≈ 1360 µM) | 471 (≈ 1050 µM) | 354 (≈ 789 µM) |
